In patent US20240279207A1, “SUBSTITUTED ACYL SULFONAMIDES FOR TREATING CANCER” (The Broad Institute, Inc., priority 2020, published 2024):
Like-named read-outs stand apart in the source and are kept apart here.

Assays:
[1] = tested on: ESR1 transcription in MVLN cells; test: MVLN reporter assay: repression of ESR1 transcription (luciferase signal); format: cell-based; conditions: luciferase signal after 24 h, read-out: MVLN reporter assay, IC50 [M] (arithmetic mean)
In short: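 To control for cell loss, Alamar Blue (2 h, 530/590 nm) precedes the 24 h luciferase measurement. The reporter is an ERE from the Xenopus vitellogenin A2 gene driving luciferase, stably transfected into ER-expressing MVLN cells; duplicate samples.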

[2] = target: T1, Recombinant human His-tagged Kat6a protein (amino acids 194-810) (Homo sapiens, UniProt Q92794); test: Kat6a activity assay (TR-FRET, acetylation of Histone-H4-derived peptide); format: biochemical; conditions: 60 mins at 22° C., 220 nM H4 peptide, 600 nM Acetyl Coenzyme A, read-out: KAT6A - DPF/HAT domain IC50 [mol/l] (arithmetic mean)
T1 construct: Kat6a protein (amino acids 194-810); His
T1 sequence (Q92794 194-810): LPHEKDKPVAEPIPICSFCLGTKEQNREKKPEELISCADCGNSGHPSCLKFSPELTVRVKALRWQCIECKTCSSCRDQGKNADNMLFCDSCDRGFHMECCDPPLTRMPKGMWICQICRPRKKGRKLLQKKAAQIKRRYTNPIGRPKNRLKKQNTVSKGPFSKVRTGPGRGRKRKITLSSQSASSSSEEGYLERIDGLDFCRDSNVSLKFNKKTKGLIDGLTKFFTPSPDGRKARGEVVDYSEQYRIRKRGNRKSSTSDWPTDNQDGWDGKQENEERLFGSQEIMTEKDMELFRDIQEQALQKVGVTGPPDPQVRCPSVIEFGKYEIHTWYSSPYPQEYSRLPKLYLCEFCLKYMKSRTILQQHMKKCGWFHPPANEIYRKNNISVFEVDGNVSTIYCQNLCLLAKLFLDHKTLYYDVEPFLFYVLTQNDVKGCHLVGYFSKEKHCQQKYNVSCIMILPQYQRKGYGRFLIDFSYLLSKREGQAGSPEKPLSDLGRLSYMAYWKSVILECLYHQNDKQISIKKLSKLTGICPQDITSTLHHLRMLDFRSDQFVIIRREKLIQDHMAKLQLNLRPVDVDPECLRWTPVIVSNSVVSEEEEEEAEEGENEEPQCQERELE

LCLC97TM1 = LCLC97TM1 proliferation assay; format: cell-based; conditions: read-out: LCLC97TM1 proliferation assay, EC50 [M] (arithmetic mean)
ZR-75-1 cells = test: ZR-75-1 proliferation assay; format: cell-based; conditions: Alamar Blue, read-out: ZR75-1 proliferation assay, EC50 [M] (arithmetic mean)
From the text: (§1) For compound characterization cell survival assays were routinely run in two cell lines. ZR-75-1 is a breast carcinoma cell line containing a focal KAT6A amplification and high KAT6A protein expression. Proliferation of this cell line is inhibited upon treatment with KAT6A inhibitors. As a negative control cell line MDA-MB-436 were used. These cells carry a […] deletion of the KAT6A gene, have a low KAT6A protein expression and are not growth inhibited upon treatment with KAT6A inhibitors.
(§2) For measurements cell lines were plated at the below indicated concentration per […] in 96-well plates in a humidified incubator at 37° C. and 5% CO2.
ZR-75-1 (ATCC, CRL-1500; breast carcinoma); 3000 cells per well; culture medium: RPMI 1640 (Biochrom #FG 1215) medium containing 2.5% FBS (Biochrom #S0615).
(§3) Each sample was prepared as triplicate and rim wells were excluded. Plates were incubated at 37° C. and 5% CO2 for 144 h. Cell viability was measured by adding 10 μL of Alamar Blue Reagent (Invitrogen #DAL 1100) and plates were incubated for 2 h at 37° C. and 5% CO2. Fluorescence was measured at 590 nm wavelength with a Tecan Spark or Victor X3 MTP-Reader (PerkinElmer).

MDA-MB-436 cells = test: MDA-MB-436 proliferation assay (negative control cell line); format: cell-based; conditions: 144 h, Alamar Blue, read-out: MDA-MB-436 proliferation assay, EC50 [M] (arithmetic mean)
From the text: as §1, §2
MDA-MB-436 (CLS, 300278; breast adenocarcinoma); 3000 cells per well; culture medium: DMEM/Ham's F12 (Biochrom #FG 4815) medium containing 2.5% FBS (Biochrom #S0615).
as §3

[3] = Homo sapiens, LCLC-97TM1, LCLC97TM1

| Structure (SMILES) | IC50 ([1]; Homo sapiens, MVLN, 24 h) [M] | IC50 [2] [nM] | EC50 (MDA-MB-436 cells; Homo sapiens) [M] | IC50 [1] [M] | EC50 (MDA-MB-436 cells) [M] | EC50 (LCLC97TM1; [3]) [M] | EC50 (ZR-75-1 cells; Homo sapiens, ZR-75-1, 144 h) [M] | EC50 (LCLC97TM1; LCLC97TM1) [M] | EC50 (ZR-75-1 cells; 144 h) [M] |
| --- | --- | --- | --- | --- | --- | --- | --- | --- | --- |
| CC(Oc1ccccc1S(=O)(=O)NC(=O)c1cc2c(F)cc(N3CCC3)cc2o1)C(F)(F)F (single isomer, unassigned) [Example 14] | 6.93e-08 | 28.1 | > 2e-05 | – | – | – | – | 1.39e-06 | 9.93e-08 |
| CC(Oc1ccccc1S(=O)(=O)NC(=O)c1cc2c(F)cc(N3CCC3)cc2o1)C(F)(F)F (single isomer, unassigned) [Example 15] | – | 47.2 | – | 7.55e-08 | > 2e-05 | – | – | 6.28e-07 | 2.46e-07 |
| CCc1ccc(OC2CCCC2)c(S(=O)(=O)NC(=O)c2cc3c(F)cc(N4CCC4)cc3o2)c1 [Example 3, 6-(Azetidin-1-yl)-N-[2-(cyclopentyloxy)-5-ethylbenzene-1-sulfonyl]-4-fluoro-1-benzofuran-2-carboxamide] | 5.25e-08 | 8.1 | > 2e-05 | – | – | 1.11e-06 | 2.32e-07 | – | – |
| CCC(C)Oc1ccc(C)cc1S(=O)(=O)NC(=O)c1cc2c(F)cc(N3CCC3)cc2o1 (centres unmarked) [Example 4, 6-(Azetidin-1-yl)-N-(2-{[butan-2-yl]oxy}-5-methylbenzene-1-sulfonyl)-4-fluoro-1-benzofuran-2-carboxamide] | 6.3e-08 | 8.72 | > 2e-05 | – | – | 6.42e-07 | 1.14e-07 | – | – |
| O=C(NS(=O)(=O)c1ccccc1-c1ccccc1)c1cc2c(F)cc(N3CCC3)cc2o1 [Example 19, 6-(Azetidin-1-yl)-N-([1,1′-biphenyl]-2-sulfonyl)-4-fluoro-1-benzofuran-2-carboxamide] | 2.06e-07 | 18.8 | > 2e-05 | – | – | – | – | – | – |
| CCOc1ccccc1S(=O)(=O)NC(=O)c1cc2ccc(N3CC(C)(F)C3)cc2o1 [Example 116, N-(2-Ethoxybenzene-1-sulfonyl)-6-(3-fluoro-3-methylazetidin-1-yl)-1-benzofuran-2-carboxamide] | 1.45e-06 | 2290 | – | – | – | > 2e-05 | 5.72e-06 | – | – |
| CCOc1ccccc1S(=O)(=O)NC(=O)c1cc2ccc(N3CC(c4ccccc4)C3)cc2o1 [Example 120, N-(2-ethoxybenzene-1-sulfonyl)-6-(3-phenylazetidin-1-yl)-1-benzofuran-2-carboxamide] | > 2e-05 | 6520 | > 2e-05 | – | – | – | – | – | – |
| CCOc1ccccc1S(=O)(=O)NC(=O)c1cc2ccc(N3CC4(CC4)C3)cc2o1 [Example 122, 6-(5-Azaspiro[2.3]hexan-5-yl)-N-(2-ethoxybenzene-1-sulfonyl)-1-benzofuran-2-carboxamide] | > 2e-05 | > 20000 | > 2e-05 | – | – | – | – | – | – |
| CCOc1ccccc1S(=O)(=O)NC(=O)c1cc2ccc(N3CC(C)(C)C3)cc2o1 [Example 124, 6-(3,3-dimethylazetidin-1-yl)-N-(2-ethoxybenzene-1-sulfonyl)-1-benzofuran-2-carboxamide] | > 2e-05 | > 20000 | > 2e-05 | – | – | – | – | – | – |
| COc1ccc(C(C)(C)C)cc1S(=O)(=O)NC(=O)c1cc2c(F)cc(N3CCC3)cc2o1 [Example 127, 6-(Azetidin-1-yl)-N-(5-tert-butyl-2-methoxybenzene-1-sulfonyl)-4-fluoro-1-benzofuran-2-carboxamide] | 3.54e-09 | – | > 2e-05 | – | – | 5.73e-08 | 2.55e-08 | – | – |
| CCOc1ccc(Br)cc1S(=O)(=O)NC(=O)c1cc2c(F)cc(N3CCC3)cc2o1 [Example 135, 6-(Azetidin-1-yl)-N-(5-bromo-2-ethoxybenzene-1-sulfonyl)-4-fluoro-1-benzofuran-2-carboxamide] | 9.74e-08 | 16.5 | > 2e-05 | – | – | – | – | – | – |
| CCc1cccc(OC)c1S(=O)(=O)NC(=O)c1cc2c(F)cc(N3CCC3)cc2o1 [Example 136, 6-(azetidin-1-yl)-N-(2-ethyl-6-methoxybenzene-1-sulfonyl)-4-fluoro-1-benzofuran-2-carboxamide] | 1.4e-07 | 45.6 | > 2e-05 | – | – | – | – | – | – |
| O=C(NS(=O)(=O)c1ccccc1OC(F)(F)F)c1cc2c(F)cc(N3CCC3)cc2o1 [Example 138, 6-(Azetidin-1-yl)-4-fluoro-N-[2-(trifluoromethoxy)benzene-1-sulfonyl]-1-benzofuran-2-carboxamide] | 2.06e-07 | 69.4 | > 2e-05 | – | – | – | – | – | – |

Now from value to compound, other results behind:

| IC50 ([1]; Homo sapiens, MVLN, 24 h) [M] | IC50 [2] [nM] | EC50 (MDA-MB-436 cells; Homo sapiens) [M] | IC50 [1] [M] | EC50 (MDA-MB-436 cells) [M] | Structure (SMILES) | EC50 (LCLC97TM1; [3]) [M] | EC50 (ZR-75-1 cells; Homo sapiens, ZR-75-1, 144 h) [M] | EC50 (LCLC97TM1; LCLC97TM1) [M] | EC50 (ZR-75-1 cells; 144 h) [M] |
| --- | --- | --- | --- | --- | --- | --- | --- | --- | --- |
| 1.45e-06 | 203 | > 2e-05 | – | – | Cc1ccc2cccc(S(=O)(=O)NC(=O)c3cc4c(F)cc(N5CCC5C(F)F)cc4o3)c2n1 (racemic) [Example 160, 6-[2-(Difluoromethyl)azetidin-1-yl]-4-fluoro-N-(2-methylquinoline-8-sulfonyl)-1-benzofuran-2-carboxamide (rac)] | > 2e-05 | 4.34e-06 | – | – |
| 5.92e-06 | 1090 | > 2e-05 | – | – | Cc1ccc2cccc(S(=O)(=O)NC(=O)c3cc4c(F)cc(N5CCC5C(C)(C)O)cc4o3)c2n1 (racemic) [Example 161, 4-Fluoro-6-[2-(1-hydroxy-1-methyl-ethyl)azetidin-1-yl]-N-[(2-methyl-8-quinolyl)sulfonyl]benzofuran-2-carboxamide (rac)] | > 2e-05 | 7.56e-06 | – | – |
| 1.95e-05 | 1990 | > 2e-05 | – | – | CCOc1ccccc1S(=O)(=O)NC(=O)c1cc2c(F)cc(N3CCC3C(C)(C)O)cc2o1 (racemic) [Example 162, N-(2-ethoxybenzene-1-sulfonyl)-4-fluoro-6-[2-(2-hydroxypropan-2-yl)azetidin-1-yl]-1-benzofuran-2-carboxamide (rac)] | > 2e-05 | > 2e-05 | – | – |
| 3.67e-06 | 862 | > 2e-05 | – | – | CCOc1ccccc1S(=O)(=O)NC(=O)c1cc2c(F)cc(N3CCC3C(F)F)cc2o1 (racemic) [Example 163, 6-[2-(Difluoromethyl)azetidin-1-yl]-N-(2-ethoxybenzene-1-sulfonyl)-4-fluoro-1-benzofuran-2-carboxamide (rac)] | > 2e-05 | 6.67e-06 | – | – |
| 6.48e-07 | 0.814 | > 2e-05 | – | – | COc1ccc(N2CCCC2c2ccccc2)cc1S(=O)(=O)NC(=O)c1cc2c(F)cc(N3CCC3)cc2o1 (racemic) [Example 201, 6-(Azetidin-1-yl)-4-fluoro-N-[2-methoxy-5-(2-phenylpyrrolidin-1-yl)benzene-1-sulfonyl]-1-benzofuran-2-carboxamide (rac)] | 2.81e-06 | 3.26e-06 | – | – |
| 2.91e-07 | 27.6 | > 2e-05 | – | – | O=C(NS(=O)(=O)c1cccc2c1OC(F)(F)C(F)(F)O2)c1cc2c(F)cc(N3CCC3)cc2o1 [Example 140, 6-(Azetidin-1-yl)-4-fluoro-N-(2,2,3,3-tetrafluoro-2,3-dihydro-1,4-benzodioxine-5-sulfonyl)-1-benzofuran-2-carboxamide] | – | – | – | – |
| > 2e-05 | 9560 | > 2e-05 | – | – | CC1(C)CCN1c1cc(F)c2cc(C(=O)NS(=O)(=O)c3ccccc3)oc2c1 [Example 216, N-(benzenesulfonyl)-6-(2,2-dimethylazetidin-1-yl)-4-fluoro-benzofuran-2-carboxamide] | – | – | – | – |
| 1.91e-06 | 271 | > 2e-05 | – | – | Cc1ccc2cccc(S(=O)(=O)NC(=O)c3cc4c(F)cc(N5CCC5(C)C)cc4o3)c2n1 [Example 218, 6-(2,2-Dimethylazetidin-1-yl)-4-fluoro-N-[(2-methyl-8-quinolyl)sulfonyl]benzofuran-2-carboxamide] | – | – | – | – |
| 3.86e-06 | 1850 | > 2e-05 | – | – | CCOc1ccccc1S(=O)(=O)NC(=O)c1cc2c(F)cc(N3CCC3(C)C)cc2o1 [Example 219, 6-(2,2-Dimethylazetidin-1-yl)-N-(2-ethoxyphenyl)sulfonyl-4-fluoro-benzofuran-2-carboxamide] | – | – | – | – |
